We go through three compounds from US20080280761A1 (priority 2005, published 2008).

Molecules are shown by their SMILES. Read-outs that look alike come from different tables or passages of the source.

One assay concerns weeds. To be noted: in vivo; cited from earlier work.
In assay [1] the test system is main weeds in the cropland. It is filed as in vivo.
The subject of assay [2] is thylakoid membrane, electron transfer reaction of two photosystems, especially photosystem II. In kind it is biochemical.
The subject of another assay is Striga hermonthica. To be noted: 10-4 mol/L; cited from earlier work.

With `O=C(O)CNCP(=O)(O)O` [glyphosate], the “time to kill the weeds” value in the assay with weeds is reported as “at least 10 days”.

Take `CC(=O)C1=C(O)C(CC(C)C)NC1=O` (stereo not shown) [iso-tenuazonic acid]: the “time to distinct toxic symptom” value in assay [1] (sprayed on the stems and leaves, 5 to 800 μg/g) was “five”. The “time to obvious injuried symptom” value in assay [1] (stem or leaf treatment) came out at 12 h. Besides, in assay [2], the apparent quanta efficiency result is listed as “obviously reduce”; the “electron transfer reaction of two photosystems, especially photosystem II” value is “inhibiting”; the “photosynthetic oxygen evolution rate” value is recorded as “obviously reduce”. Moreover, the “inhibitory effect on the seed germination” value with Striga hermonthica is “around 50%”.

For the compound `CCC(C)C1NC(=O)C(C(C)=O)=C1O` (stereo not shown) [tenuazonic acid], in assay [1] (in vivo), the “time to distinct toxic symptom” value was “five” and the “time to obvious injuried symptom” value was found to be 12 h. Further, in assay [2], the apparent quanta efficiency result was “obviously reduce”; the “electron transfer reaction of two photosystems, especially photosystem II” value is “inhibiting”; the “photosynthetic oxygen evolution rate” value is listed as “obviously reduce”. Moreover, the “inhibitory effect on the seed germination” value in the assay on Striga hermonthica is “around 50%”.
